Measured values: the supplement of paper PMC10307832

Key:
Experiment in all cases: relative viability (nuclei count vs DMSO), 5 days (fraction); higher = more cells survive
LCLC-103H = test system: LCLC-103H
Method in brief: (§1)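 Each reported value is a median over duplicate plates. It expresses relative viability: treated-well nuclei count divided by vehicle-well nuclei count. Lung cancer cell lines in 1536-well plates were dosed by pin tool a day after seeding, alone with one drug or with a fixed anchor-drug dose plus five library-drug doses (not always all listed) in √10 steps, and nuclei were counted after 5 days.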

LK-2 = test system: LK-2
Method in brief: as §1

RERF-LC-KJ = test system: RERF-LC-KJ
Method in brief: as §1

NCI-H661 = test system: NCI-H661
Method in brief: as §1

NCI-H1666 = test system: NCI-H1666
Method in brief: as §1

PC-14 = test system: PC-14
Method in brief: as §1

NCI-H727 = test system: NCI-H727
Method in brief: as §1

NCI-H2170 = test system: NCI-H2170
Method in brief: as §1

NCI-H1437 = test system: NCI-H1437
Method in brief: as §1

NCI-H1355 = test system: NCI-H1355
Method in brief: as §1

ChaGo-K-1 = test system: ChaGo-K-1
Method in brief: as §1

HOP-62 = test system: HOP-62
Method in brief: as §1

NCI-H2126 = test system: NCI-H2126
Method in brief: as §1

BEN = test system: BEN
Method in brief: as §1

NCI-H1944 = test system: NCI-H1944
Method in brief: as §1

NCI-H647 = test system: NCI-H647
Method in brief: as §1

LOU-NH91 = test system: LOU-NH91
Method in brief: as §1

SK-MES-1 = test system: SK-MES-1
Method in brief: as §1

NCI-H1993 = test system: NCI-H1993
Method in brief: as §1

EKVX = test system: EKVX
Method in brief: as §1

LXF-289 = test system: LXF-289
Method in brief: as §1

NCI-H441 = test system: NCI-H441
Method in brief: as §1

HCC-827 = test system: HCC-827
Method in brief: as §1

## Cc1cn(-c2cc(NC(=O)c3ccc(C)c(Nc4nccc(-c5cccnc5)n4)c3)cc(C(F)(F)F)c2)cn1 [Nilotinib] + Cc1nc(Nc2ncc(C(=O)Nc3c(C)cccc3Cl)s2)cc(N2CCN(CCO)CC2)n1 [Dasatinib] (partner 0.075 µM)
LCLC-103H; first compound 0.001 µM
  relative viability: 0.414
LCLC-103H; first compound 0.003162 µM
  relative viability: 0.414
LCLC-103H; first compound 0.01 µM
  relative viability: 0.51
LCLC-103H; first compound 0.03162 µM
  relative viability: 0.338
LCLC-103H; first compound 0.1 µM
  relative viability: 0.434
LK-2; first compound 0.001 µM
  relative viability: 0.311
LK-2; first compound 0.003162 µM
  relative viability: 0.239
LK-2; first compound 0.01 µM
  relative viability: 0.294
LK-2; first compound 0.03162 µM
  relative viability: 0.247
LK-2; first compound 0.1 µM
  relative viability: 0.183
RERF-LC-KJ; first compound 0.001 µM
  relative viability: 0.716
RERF-LC-KJ; first compound 0.003162 µM
  relative viability: 0.947
RERF-LC-KJ; first compound 0.01 µM
  relative viability: 0.833
RERF-LC-KJ; first compound 0.03162 µM
  relative viability: 0.71
RERF-LC-KJ; first compound 0.1 µM
  relative viability: 0.549
NCI-H661; first compound 0.001 µM
  relative viability: 0.923
NCI-H661; first compound 0.003162 µM
  relative viability: 0.956
NCI-H661; first compound 0.01 µM
  relative viability: 0.921
NCI-H661; first compound 0.03162 µM
  relative viability: 0.635
NCI-H661; first compound 0.1 µM
  relative viability: 0.613
NCI-H1666; first compound 0.001 µM
  relative viability: 0.783
NCI-H1666; first compound 0.003162 µM
  relative viability: 0.886
NCI-H1666; first compound 0.01 µM
  relative viability: 0.797
NCI-H1666; first compound 0.03162 µM
  relative viability: 0.719
NCI-H1666; first compound 0.1 µM
  relative viability: 0.778
PC-14; first compound 0.001 µM
  relative viability: 0.226
PC-14; first compound 0.003162 µM
  relative viability: 0.254
PC-14; first compound 0.01 µM
  relative viability: 0.198
PC-14; first compound 0.03162 µM
  relative viability: 0.16
PC-14; first compound 0.1 µM
  relative viability: 0.0622
NCI-H727; first compound 0.001 µM
  relative viability: 0.415
NCI-H727; first compound 0.003162 µM
  relative viability: 0.339
NCI-H727; first compound 0.01 µM
  relative viability: 0.425
NCI-H727; first compound 0.03162 µM
  relative viability: 0.41
NCI-H727; first compound 0.1 µM
  relative viability: 0.302
NCI-H2170; first compound 0.001 µM
  relative viability: 0.591
NCI-H2170; first compound 0.003162 µM
  relative viability: 0.576
NCI-H2170; first compound 0.01 µM
  relative viability: 0.736
NCI-H2170; first compound 0.03162 µM
  relative viability: 0.465
NCI-H2170; first compound 0.1 µM
  relative viability: 0.406
NCI-H1437; first compound 0.001 µM
  relative viability: 0.366
NCI-H1437; first compound 0.003162 µM
  relative viability: 0.327
NCI-H1437; first compound 0.01 µM
  relative viability: 0.373
NCI-H1437; first compound 0.03162 µM
  relative viability: 0.296
NCI-H1437; first compound 0.1 µM
  relative viability: 0.164
NCI-H1355; first compound 0.001 µM
  relative viability: 0.653
NCI-H1355; first compound 0.003162 µM
  relative viability: 0.751
NCI-H1355; first compound 0.01 µM
  relative viability: 0.556
NCI-H1355; first compound 0.03162 µM
  relative viability: 0.46
NCI-H1355; first compound 0.1 µM
  relative viability: 0.333
ChaGo-K-1; first compound 0.001 µM
  relative viability: 0.521
ChaGo-K-1; first compound 0.003162 µM
  relative viability: 0.598
ChaGo-K-1; first compound 0.01 µM
  relative viability: 0.634
ChaGo-K-1; first compound 0.03162 µM
  relative viability: 0.372
ChaGo-K-1; first compound 0.1 µM
  relative viability: 0.331
HOP-62; first compound 0.001 µM
  relative viability: 0.603
HOP-62; first compound 0.003162 µM
  relative viability: 0.67
HOP-62; first compound 0.01 µM
  relative viability: 0.66
HOP-62; first compound 0.03162 µM
  relative viability: 0.491
HOP-62; first compound 0.1 µM
  relative viability: 0.476
NCI-H2126; first compound 0.001 µM
  relative viability: 0.534
NCI-H2126; first compound 0.003162 µM
  relative viability: 0.522
NCI-H2126; first compound 0.01 µM
  relative viability: 0.513
NCI-H2126; first compound 0.03162 µM
  relative viability: 0.5
NCI-H2126; first compound 0.1 µM
  relative viability: 0.459
BEN; first compound 0.001 µM
  relative viability: 0.336
BEN; first compound 0.003162 µM
  relative viability: 0.338
BEN; first compound 0.01 µM
  relative viability: 0.278
BEN; first compound 0.03162 µM
  relative viability: 0.322
BEN; first compound 0.1 µM
  relative viability: 0.221
NCI-H1944; first compound 0.001 µM
  relative viability: 0.228
NCI-H1944; first compound 0.003162 µM
  relative viability: 0.206
NCI-H1944; first compound 0.01 µM
  relative viability: 0.217
NCI-H1944; first compound 0.03162 µM
  relative viability: 0.241
NCI-H647; first compound 0.001 µM
  relative viability: 0.195
NCI-H647; first compound 0.003162 µM
  relative viability: 0.274
NCI-H647; first compound 0.01 µM
  relative viability: 0.262
NCI-H647; first compound 0.03162 µM
  relative viability: 0.101
NCI-H647; first compound 0.1 µM
  relative viability: 0.0706
LOU-NH91; first compound 0.001 µM
  relative viability: 0.524
LOU-NH91; first compound 0.003162 µM
  relative viability: 0.619
LOU-NH91; first compound 0.01 µM
  relative viability: 0.569
LOU-NH91; first compound 0.03162 µM
  relative viability: 0.489
LOU-NH91; first compound 0.1 µM
  relative viability: 0.583
SK-MES-1; first compound 0.001 µM
  relative viability: 0.306
SK-MES-1; first compound 0.003162 µM
  relative viability: 0.334
SK-MES-1; first compound 0.01 µM
  relative viability: 0.308
SK-MES-1; first compound 0.03162 µM
  relative viability: 0.29
SK-MES-1; first compound 0.1 µM
  relative viability: 0.207
NCI-H1993; first compound 0.001 µM
  relative viability: 0.625
NCI-H1993; first compound 0.003162 µM
  relative viability: 0.546
NCI-H1993; first compound 0.01 µM
  relative viability: 0.495
NCI-H1993; first compound 0.03162 µM
  relative viability: 0.516
NCI-H1993; first compound 0.1 µM
  relative viability: 0.627
EKVX; first compound 0.001 µM
  relative viability: 0.461
EKVX; first compound 0.003162 µM
  relative viability: 0.477
EKVX; first compound 0.01 µM
  relative viability: 0.554
EKVX; first compound 0.03162 µM
  relative viability: 0.467
EKVX; first compound 0.1 µM
  relative viability: 0.432
LXF-289; first compound 0.001 µM
  relative viability: 0.214
LXF-289; first compound 0.003162 µM
  relative viability: 0.239
LXF-289; first compound 0.01 µM
  relative viability: 0.188
LXF-289; first compound 0.03162 µM
  relative viability: 0.207
LXF-289; first compound 0.1 µM
  relative viability: 0.136
NCI-H441; first compound 0.001 µM
  relative viability: 0.523
NCI-H441; first compound 0.003162 µM
  relative viability: 0.712
NCI-H441; first compound 0.01 µM
  relative viability: 0.632
NCI-H441; first compound 0.03162 µM
  relative viability: 0.369
NCI-H441; first compound 0.1 µM
  relative viability: 0.417
HCC-827; first compound 0.001 µM
  relative viability: 0.301
HCC-827; first compound 0.003162 µM
  relative viability: 0.308
HCC-827; first compound 0.01 µM
  relative viability: 0.329
HCC-827; first compound 0.03162 µM
  relative viability: 0.283
HCC-827; first compound 0.1 µM
  relative viability: 0.284
